These results are taken from patent publication US20090197880A1 (Genelabs Technologies, Inc., priority 2007, published 2009).

This assay is described as follows: HCV replicon assay (luciferase) in ET (Huh-lucubineo-ET) cell line. Conditions: Hepatitis C virus, inhibition of replication relative to no compound control, ET replicon cells, luciferase 48-72 hours; for inhibition at 10 µM: tested at 10 μM, read-out: % inhition at 10 μM; for inhibition at 5 µM: tested at 5 μM. The class given is cell-based. From the text: A cell line, ET (Huh-lucubineo-ET) was used for screening of compounds, or pharmaceutically acceptable salts or solvates, described herein for inhibition of HCV RNA dependent RNA polymerase. The ET cell line was stably transfected with RNA transcripts harboring a I389luc-ubi-neo/NS3-3′/ET; replicon with firefly luciferase-ubiquitin-neomycin phosphotransferase fusion protein and EMCV-IRES driven NS3-5B polyprotein containing the cell culture adaptive mutations (E1202G; T1280I; K1846T) (Krieger at al, 2001 and unpublished). The ET cells were grown in DMEM, supplemented with 10% fetal calf serum, 2 mM Glutamine, Penicillin (100 IU/mL)/Streptomycin (100 μg/mL), 1× nonessential amino acids, and 250 μg/mL G418 (“Geneticin”). They were all available through Life Technologies (Bethesda, Md.). The cells were plated at 0.5−1.0×10^4 cells/well in the 96 well plates and incubated for 24 hrs before adding the test compounds. […] Luciferase activity was measured 48-72 hours later by adding a lysis buffer and the substrate (Catalog number Glo-lysis buffer E2661 and Bright-Glo luciferase system E2620 Promega, Madison, Wis.). Cells should not be too confluent during the assay. Percent inhibition of replication was plotted relative to no compound control. Under the same condition, cytotoxicity of the compounds was determined using cell proliferation reagent, WST-1 (Roche, Germany). The compounds showing antiviral activities, but no significant cytotoxicities were chosen to determine the EC50 and TC50, the effective concentration and toxic concentration at which 50% of the maximum inhibition is observed. For these determinations, 6 dilutions of each compound were used. Compounds were typically diluted 3 fold to span a concentration range of 250 fold. EC50 and similarly TC50 values were calculated by fitting % inhibition at each concentration to the following equation:
% inhibition=100%/[(EC50/[I])^b+1]
where b is Hill's coefficient.

In the case of `Nc1nn(Cc2cc(-c3ccc(C(F)(F)F)cc3C(F)(F)F)no2)cc2nc(-c3cccc(F)c3F)nc1-2` [Compound 233, 6-[3-(2,4-Bis-trifluoromethyl-phenyl)-isoxazol-5-ylmethyl]-2-(2,3-difluoro-phenyl)-6H-imidazo[4,5-d]pyridazin-4-ylamine], the inhibition at 10 µM came out at 96.8%.
For `Fc1ccccc1-c1nc2cnn(Cc3nc(-c4ccc(Cl)cc4)no3)cc-2n1` [Compound 113, 5-[3-(4-Chloro-phenyl)-[1,2,4]oxadiazol-5-ylmethyl]-2-(2-fluoro-phenyl)-5H-imidazo[4,5-d]pyridazine], the inhibition at 5 µM turned out to be 24.9% and the inhibition at 10 µM came out at 41.7%.
In the case of `Cc1nc(C)c(-c2cc(Cn3cc4nc(-c5cccc(F)c5F)nc-4cn3)on2)s1` [Compound 149, 2-(2,3-Difluoro-phenyl)-5-[3-(2,4-dimethyl-thiazol-5-yl)-isoxazol-5-ylmethyl]-5H-imidazo[4,5-d]pyridazine], the inhibition at 10 µM was 43.7%.
The same measure, in the same setting: for `Fc1cccc(-c2nc3cnn(Cc4cc(-c5ccc(C(F)(F)F)nc5)no4)cc-3n2)c1F` [Compound 205, 2-(2,3-Difluoro-phenyl)-5-[3-(6-trifluoromethyl-pyridin-3-yl)-isoxazol-5-ylmethyl]-5H-imidazo[4,5-d]pyridazine] the value was 98.7%.
In the case of `Fc1ccc(-c2cc(Cn3cc4nc(-c5ccccc5F)nc-4cn3)on2)c(C(F)(F)F)c1` [Compound 115, 2-(2-Fluoro-phenyl)-5-[3-(4-fluoro-2-trifluoromethyl-phenyl)-isoxazol-5-ylmethyl]-5H-imidazo[4,5-d]pyridazine], the inhibition at 5 µM is 67.6% and the inhibition at 10 µM turned out to be 75.3%.
Turning to `Fc1cccc(-c2nc3cnn(Cc4cc(-c5ccc(CCC(F)(F)F)cc5)no4)cc-3n2)c1F` [Compound 331, 2-(2,3-Difluoro-phenyl)-5-{3-[4-(3,3,3-trifluoro-propyl)-phenyl]-isoxazol-5-ylmethyl}-5H-imidazo[4,5-d]pyridazine], the inhibition at 10 µM was 99.9%.
Still for that read-out and setting: for `CN(C)CCCOc1ccc(-c2cc(Cn3cc4nc(-c5cccc(F)c5F)nc-4cn3)on2)cc1` [Compound 216, [3-(4-{5-[2-(2,3-Difluoro-phenyl)-imidazo[4,5-d]pyridazin-5-ylmethyl]-isoxazol-3-yl}-phenoxy)-propyl]-dimethyl-amine] the value was 79.1%.
The same measure, in the same setting: next, `COc1ccc(-c2cc(Cn3cc4nc(-c5cccc(F)c5F)nc-4cn3)on2)c(F)c1` [Compound 313, 2-(2,3-Difluoro-phenyl)-5-[3-(2-fluoro-4-methoxy-phenyl)-isoxazol-5-ylmethyl]-5H-imidazo[4,5-d]pyridazine]: 99.2%; `Fc1cc(C(F)(F)F)ccc1-c1cc(Cn2cc3nc(-c4cccc(F)c4F)nc-3cn2)on1` [Compound 203, 2-(2,3-Difluoro-phenyl)-5-[3-(2-fluoro-4-trifluoromethyl-phenyl)-isoxazol-5-ylmethyl]-5H-imidazo[4,5-d]pyridazine]: 99.6%.
With `COc1ccc(-c2cc(Cn3cc4nc(-c5ccccc5F)nc-4cn3)on2)cc1` [Compound 109, 2-(2-Fluoro-phenyl)-5-[3-(4-methoxy-phenyl)-isoxazol-5-ylmethyl]-5H-imidazo[4,5-d]pyridazine], the inhibition at 5 µM was determined as 98% and the inhibition at 10 µM turned out to be 95.4%.
As to `FC(F)(F)c1ccc(-c2cc(Cn3cc4nc(NCc5ccccc5)nc-4cn3)on2)c(C(F)(F)F)c1` [Compound 251, Benzyl-{5-[3-(2,4-bis-trifluoromethyl-phenyl)-isoxazol-5-ylmethyl]-5H-imidazo[4,5-d]pyridazin-2-yl}-amine], the inhibition at 10 µM worked out at 97.7%.
On the same count and under the same terms, for `CCCCOc1ccc(-c2cc(Cn3cc4nc(-c5cccc(F)c5F)nc-4cn3)on2)cc1` [Compound 222, 5-[3-(4-Butoxy-phenyl)-isoxazol-5-ylmethyl]-2-(2,3-difluoro-phenyl)-5H-imidazo[4,5-d]pyridazine] the value was 98.2%; for `Fc1cccc(CNc2nc3cnn(Cc4cc(-c5ccc(C(F)(F)F)cc5C(F)(F)F)no4)cc-3n2)c1F` [Compound 255, {5-[3-(2,4-Bis-trifluoromethyl-phenyl)-isoxazol-5-ylmethyl]-5H-imidazo[4,5-d]pyridazin-2-yl}-(2,3-difluoro-benzyl)-amine], 4.67%.
Consider `Fc1ccccc1-c1nc2cnn(Cc3cc(-c4ccccc4)no3)cc-2n1` [Compound 111, 2-(2-Fluoro-phenyl)-5-(3-phenyl-isoxazol-5-ylmethyl)-5H-imidazo[4,5-d]pyridazine], for which the inhibition at 5 µM turned out to be 16%.
Turning to `Fc1cccc(-c2nc3ccn(Cc4cc(-c5ccc(C(F)(F)F)cc5C(F)(F)F)no4)nc-3n2)c1F` [Compound 245, 2-[3-(2,4-Bis-trifluoromethyl-phenyl)-isoxazol-5-ylmethyl]-6-(2,3-difluoro-phenyl)-2H-imidazo[4,5-c]pyridazine], the inhibition at 10 µM stood at 72.8%.
On the same count and under the same terms, for `CC(=O)c1ccc(-c2cc(Cn3cc4nc(-c5cccc(F)c5F)nc-4cn3)on2)cc1` [Compound 290, 1-(4-{5-[2-(2,3-Difluoro-phenyl)-imidazo[4,5-d]pyridazin-5-ylmethyl]-isoxazol-3-yl}-phenyl)-ethanone] the value was 95.2%; for `C#Cc1ccc(-c2cc(Cn3cc4nc(-c5cccc(F)c5F)nc-4cn3)on2)cc1` [Compound 334, 2-(2,3-Difluoro-phenyl)-5-[3-(4-ethynyl-phenyl)-isoxazol-5-ylmethyl]-5H-imidazo[4,5-d]pyridazine], 99%; for `CCCOc1cnc(-c2cc(Cn3cc4nc(-c5cccc(F)c5F)nc-4cn3)on2)cn1` [Compound 315, 2-(2,3-Difluoro-phenyl)-5-[3-(5-propoxy-pyrazin-2-yl)-isoxazol-5-ylmethyl]-5H-imidazo[4,5-d]pyridazine], 99.3%.
Same read-out and setting: next, `Fc1cccc(-c2nc3cnn(Cc4cc(-c5ccc(C(F)(F)F)cc5)no4)cc-3n2)c1F` [Compound 202, 2-(2,3-Difluoro-phenyl)-5-[3-(4-trifluoromethyl-phenyl)-isoxazol-5-ylmethyl]-5H-imidazo[4,5-d]pyridazine]: 99.2%; `Fc1ccccc1-c1nc2cnn(Cc3cc(-c4ccc(C(F)(F)F)cc4)no3)cc-2n1` [Compound 278, 2-(2-Fluoro-phenyl)-5-[3-(4-trifluoromethyl-phenyl)-isoxazol-5-ylmethyl]-5H-imidazo[4,5-d]pyridazine]: 99.7%.
Still for that read-out and setting: next, `COc1cc(-c2cc(Cn3cc4nc(-c5cccc(F)c5F)nc-4cn3)on2)ccc1OC(F)F` [Compound 163, 5-[3-(4-Difluoromethoxy-3-methoxy-phenyl)-isoxazol-5-ylmethyl]-2-(2,3-difluoro-phenyl)-5H-imidazo[4,5-d]pyridazine]: 62%; `CC(=O)OCCCOc1ccc(-c2cc(Cn3cc4nc(-c5cccc(F)c5F)nc-4cn3)on2)cc1` [Compound 272, Acetic Acid 3-(4-{5-[2-(2,3-difluoro-phenyl)-imidazo[4,5-d]pyridazin-5-ylmethyl]-isoxazol-3-yl}-phenoxy)-propyl Ester]: 91.1%; `Fc1cccc(-c2nc3cnn(Cc4cc(-c5ccc(OC(F)(F)C(F)C(F)(F)F)cc5)no4)cc-3n2)c1F` (centres unmarked) [Compound 170, 2-(2,3-Difluoro-phenyl)-5-{3-[4-(1,1,2,3,3,3-hexafluoro-propoxy)-phenyl]-isoxazol-5-ylmethyl}-5H-imidazo[4,5-d]pyridazine]: 97.9%.
